Experimental data: paper PMC2841478 (Journal of medicinal chemistry, 2008)
“Also recorded” adds a separate entry of the source. Like-named read-outs stand apart in the source and are kept apart here.

Tests used:
[1] = target: T1, norepinephrine transporter (NET) (Rattus norvegicus, UniProt Q63380); assay: Competitive binding at the NET with [3H]nisoxetine
[2] = target: T2, serotonin transporter (5-HTT) (Rattus norvegicus, UniProt P31652); assay: Competitive binding at the 5-HTT with [3H]paroxetine
[3] = target: T3, dopamine transporter (DAT) (Rattus norvegicus, UniProt P23977); assay: Competitive binding at the DAT with [3H]WIN 35,428
[4] = test system: cocaine self-administration; settings: rhesus monkeys, multiple second-order schedule; cited from earlier work
reinforcement = settings: squirrel monkeys; cited from earlier work
[5] = target: T3, dopamine transporter (DAT); settings: read-out: DAT, IC50 [3H]12; comparison data; cited from earlier work
[6] = target: T2, serotonin transporter (5-HTT); settings: read-out: 5-HTT, Ki [3H]paroxetine; comparison data; cited from earlier work
[7] = target: T1, norepinephrine transporter (NET); settings: read-out: NET, Ki [3H]nisoxetine; comparison data; cited from earlier work
[8] = test system: dopamine transporter (DAT); settings: cited from earlier work
drug self-administration = settings: three rhesus monkeys; cited from earlier work

T1 sequence (Q63380 1-617): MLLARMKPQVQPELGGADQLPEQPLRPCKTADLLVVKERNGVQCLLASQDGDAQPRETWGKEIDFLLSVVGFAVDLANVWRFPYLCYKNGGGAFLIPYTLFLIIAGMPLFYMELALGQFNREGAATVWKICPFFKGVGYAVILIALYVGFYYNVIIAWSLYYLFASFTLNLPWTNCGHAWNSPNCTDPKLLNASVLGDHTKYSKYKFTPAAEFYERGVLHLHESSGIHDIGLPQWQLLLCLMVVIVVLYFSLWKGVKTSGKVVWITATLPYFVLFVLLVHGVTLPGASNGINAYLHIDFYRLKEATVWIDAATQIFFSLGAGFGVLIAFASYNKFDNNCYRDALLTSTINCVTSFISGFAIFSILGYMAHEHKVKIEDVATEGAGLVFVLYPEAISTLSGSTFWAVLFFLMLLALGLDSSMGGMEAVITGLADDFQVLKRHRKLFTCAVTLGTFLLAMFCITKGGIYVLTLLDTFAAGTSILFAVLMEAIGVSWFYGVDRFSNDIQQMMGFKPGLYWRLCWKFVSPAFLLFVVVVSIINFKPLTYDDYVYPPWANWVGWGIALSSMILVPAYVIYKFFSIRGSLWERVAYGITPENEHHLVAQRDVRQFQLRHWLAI
T2 sequence (P31652 whole entry): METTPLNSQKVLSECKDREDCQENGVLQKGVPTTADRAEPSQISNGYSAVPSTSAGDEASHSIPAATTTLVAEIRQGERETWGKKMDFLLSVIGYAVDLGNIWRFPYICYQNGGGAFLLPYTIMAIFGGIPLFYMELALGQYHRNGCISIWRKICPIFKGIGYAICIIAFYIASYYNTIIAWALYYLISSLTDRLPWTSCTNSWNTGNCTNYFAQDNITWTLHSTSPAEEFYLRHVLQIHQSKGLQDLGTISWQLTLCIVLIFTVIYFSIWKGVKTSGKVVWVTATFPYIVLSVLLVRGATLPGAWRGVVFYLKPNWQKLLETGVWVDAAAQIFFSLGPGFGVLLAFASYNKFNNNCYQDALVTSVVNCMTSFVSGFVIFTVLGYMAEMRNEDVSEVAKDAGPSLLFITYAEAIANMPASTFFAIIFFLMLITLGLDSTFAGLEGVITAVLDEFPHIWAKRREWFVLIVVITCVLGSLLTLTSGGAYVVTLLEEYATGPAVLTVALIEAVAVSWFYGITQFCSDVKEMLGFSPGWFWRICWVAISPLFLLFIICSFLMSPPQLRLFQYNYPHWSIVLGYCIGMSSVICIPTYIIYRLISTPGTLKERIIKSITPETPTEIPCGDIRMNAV
T3 sequence (P23977 whole entry): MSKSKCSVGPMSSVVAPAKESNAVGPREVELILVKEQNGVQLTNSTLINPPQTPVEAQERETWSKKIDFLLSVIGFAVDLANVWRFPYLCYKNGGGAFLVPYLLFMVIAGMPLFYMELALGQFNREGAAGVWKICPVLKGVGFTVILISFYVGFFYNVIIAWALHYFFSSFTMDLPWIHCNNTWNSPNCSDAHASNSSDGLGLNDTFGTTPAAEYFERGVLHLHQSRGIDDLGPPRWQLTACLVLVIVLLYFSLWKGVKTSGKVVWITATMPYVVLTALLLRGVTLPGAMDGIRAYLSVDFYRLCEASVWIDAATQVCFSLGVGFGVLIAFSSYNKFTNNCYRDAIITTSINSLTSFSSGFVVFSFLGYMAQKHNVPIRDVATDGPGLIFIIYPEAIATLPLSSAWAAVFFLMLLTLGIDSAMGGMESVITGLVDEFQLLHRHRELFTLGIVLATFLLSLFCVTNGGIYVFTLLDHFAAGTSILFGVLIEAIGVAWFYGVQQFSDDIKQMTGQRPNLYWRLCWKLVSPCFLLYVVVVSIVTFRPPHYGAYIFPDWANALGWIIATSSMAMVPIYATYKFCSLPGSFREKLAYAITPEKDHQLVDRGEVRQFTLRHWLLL

Row | SMILES | Ki [1] | Ki [2] | other results
1 | COC(=O)[C@H]1[C@@H](c2ccc(OC)cc2)C[C@@H]2CC[C@H]1N2C [7a, 3β-(4-Methoxyphenyl)tropane-2β-carboxylic Acid Methyl Ester] | 1110 ± 64 nM | 4.3 ± 0.5 nM | 
2 | CCOc1ccc([C@H]2C[C@@H]3CC[C@H]([C@H]2C(=O)OC)N3C)cc1 [7b, 3β-(4-Ethoxyphenyl)tropane-2β-carboxylic Acid Methyl Ester] | 1690 ± 50 nM | 1.7 ± 0.4 nM | 
3 | COC(=O)[C@H]1[C@@H](c2ccc(OC)c(F)c2)C[C@@H]2CC[C@H]1N2C [7c, 3β-(3-Fluoro-4-methoxyphenyl)tropane-2β-carboxylic Acid Methyl Ester] | 270 ± 50 nM | 4.8 ± 0.5 nM | 
4 | COC(=O)[C@H]1[C@@H](c2ccc(OC)c(Br)c2)C[C@@H]2CC[C@H]1N2C [7d, 3β-(3-Bromo-4-methoxyphenyl)tropane-2β-carboxylic Acid Methyl Ester] | 160 ± 20 nM | 3.1 ± 0.1 nM | 
5 | COC(=O)[C@H]1[C@@H](c2cc(I)c(OC)c(I)c2)C[C@@H]2CC[C@H]1N2C [7g, 3β-(3,5-Diiodo-4-methoxyphenyl)tropane-2β-carboxylic Acid Methyl Ester] | > 5000 nM | 7.5 ± 0.8 nM | 
6 | COc1ccc([C@H]2C[C@@H]3CC[C@H]([C@H]2C(=O)OC(C)C)N3C)cc1 [8a, 3β-(4-Methoxyphenyl)tropane-2β-carboxylic Acid Isopropyl Ester] | 2010 ± 200 nM | 135 ± 35 nM | 
7 | COc1ccc([C@H]2C[C@@H]3CC[C@H]([C@H]2C(=O)OC2CC2)N3C)cc1 [8b, 3β-(4-Methoxyphenyl)tropane-2β-carboxylic Acid Cyclopropyl Ester] | 1230 ± 140 nM | 29 ± 3 nM | 
8 | COc1ccc([C@H]2C[C@@H]3CC[C@H]([C@H]2C(=O)OC2CCC2)N3C)cc1 [8c, 3β-(4-Methoxyphenyl)tropane-2β-carboxylic Acid Cyclobutyl Ester] | > 3000 nM | 100 ± 8 nM | 
9 | COc1ccc([C@H]2C[C@@H]3CC[C@H]([C@H]2C(=O)OCCc2ccc([N+](=O)[O-])cc2)N3C)cc1 [8d, 3β-(4-Methoxyphenyl)tropane-2β-carboxylic Acid 2-(4-Nitrophenyl)ethyl Ester] | 330 ± 20 nM | 2.9 ± 0.2 nM | 
10 | COc1ccc([C@H]2C[C@@H]3CC[C@H]([C@H]2C(=O)OCCc2ccc(N)cc2)N3C)cc1 [8e, 3β-(4-Methoxyphenyl)tropane-2β-carboxylic Acid 2-(4-Aminophenyl)ethyl Ester] | 2200 ± 300 nM | 8.3 ± 0.4 nM | 
11 | COc1ccc([C@H]2C[C@@H]3CC[C@H]([C@H]2C(=O)OCCc2ccc(NC(C)=O)cc2)N3C)cc1 [8f, 3β-(4-Methoxyphenyl)tropane-2β-carboxylic Acid 2-(4-Acetylaminophenyl)ethyl Ester] | 1460 ± 30 nM | 5.5 ± 0.5 nM | 
12 | COc1ccc([C@H]2C[C@@H]3CC[C@H]([C@H]2C(=O)OCCc2ccc(N)c(Br)c2)N3C)cc1 [8g, 3β-(4-Methoxyphenyl)tropane-2β-carboxylic Acid 2-(3-Bromo-4-aminophenyl)ethyl Ester] | 1850 ± 90 nM | 4.1 ± 0.6 nM | 
13 | COc1ccc([C@H]2C[C@@H]3CC[C@H]([C@H]2C(=O)OCCc2cc(Br)c(N)c(Br)c2)N3C)cc1 [8h, 3β-(4-Methoxyphenyl)tropane-2β-carboxylic Acid 2-(3,5-Dibromo-4-aminophenyl)ethyl Ester] | 2710 ± 250 nM | 2 ± 0.4 nM | 
14 | COc1ccc([C@H]2C[C@@H]3CC[C@H]([C@H]2C(=O)OCCc2ccc(N)c(I)c2)N3C)cc1 [8i, 3β-(4-Methoxyphenyl)tropane-2β-carboxylic Acid 2-(3-Iodo-4-aminophenyl)ethyl Ester] | 2040 ± 300 nM | 3.5 ± 1 nM | 
15 | COc1ccc([C@H]2C[C@@H]3CC[C@H]([C@H]2C(=O)OCCc2cc(I)c(N)c(I)c2)N3C)cc1 [8j, 3β-(4-Methoxyphenyl)tropane-2β-carboxylic Acid 2-(3,5-Diiodo-4-aminophenyl)ethyl Ester] | 2600 ± 200 nM | 1 ± 0.1 nM | IC50 [3]: 100 nM
16 | Cc1ccc(-c2cc([C@@H]3C4CCC(C[C@@H]3c3ccc(Cl)cc3)N4C)on2)cc1 (stereo partly drawn) [compound 3, 3β-(4-chlorophenyl)-2β-[3-(4′-methylphenyl)isoxazol-5-yl]tropane] |  |  | Cocaine maintained responding after pretreatment [4]: dose-dependent reduction
17 | COC(=O)[C@H]1[C@@H](c2ccc(Cl)c(C)c2)C[C@@H]2CC[C@H]1N2C [compound 6, 3β-(4-Chloro-3-methylphenyl)tropane-2β-carboxylic acid methyl ester] |  |  | Reinforcement effects (reinforcement): did not exhibit any reinforcement effects; IC50 [5]: 0.82 ± 0.05 nM; Ki [6]: 0.95 ± 0.04 nM; Ki [7]: 21.8 ± 0.6 nM; DAT occupancy ([8]; at the ED50 for reduction of cocaine self-administration): no detectable; also recorded: below the limits of detection; DAT occupancy ([8]; highest dose tested): greater than 70%; Maintenance of drug self-administration (drug self-administration): failed to maintain robust drug self-administration
18 | COc1ccc([C@H]2C[C@@H]3CC[C@H]([C@H]2c2cc(-c4ccc(C)cc4)no2)N3C)cc1 [compound 9, 3β-(4-Methoxyphenyl)-2β-[3-(4′-methylphenyl)isoxazol-5-yl]tropane] | > 3000 nM | 860 ± 170 nM | 
